Assay: Water Miscibility Test
Assay type: physicochemical
Conditions: 0.5 g ionic liquid and 4.5 g de-ionized water, sonicated 1.5 hours; miscible if homogenous transparent system within 15 minutes of standing
Description: “Hydrophilic ionic compound” or “water miscible ionic compound” as used herein refers to ionic compound that is partially or wholly miscible with water, i.e. it is capable of forming a visually homogenous or transparent mixture with water according to the Water Miscibility Test described herein. The water miscibility of an ionic liquid is measured by the following water miscibility test. A mixture of 0.5 g ionic liquid and 4.5 g de-ionized water are sonicated in a Bransonic Ultrasonic Bath (model # 1210R-MTH, 50/60 Hz, 117 volts, 1.3 AMPS) according to manufacture's specifications for 1.5 hours. Thereafter, if a homogenous transparent system results within 15 minutes of standing without agitation, then the ionic liquid is water miscible.

Substance	Water Miscible?
Tetraoctyl Ammonium Mid-Chain Branched Dodecylsulfate [Example 1]	No
Triisooctylmethyl Ammonium Mid-Chain Branched Dodecylsulfate [Example 2]	No
Tetraoctyl Ammonium Dodecylbenzenesulfonate [Example 3]	No
